Values quoted from earlier work, collected in patent publication US11129554B2, “Sweat monitoring and control of drug delivery” (University Of Cincinnati, priority 2014, dated 2021).

What was measured:
[1] = in vivo
[2] = dye clearance tests

| Compound | beta-blocking activity (beta-adrenoceptors) | also measured |
| --- | --- | --- |
| CN1C(=O)CC[C@H]1c1cccnc1 [cotinine] | – | half-life [1]: about 20 hours |
| carboxyethyl-hydroxychroman [CEHC] | – | resolution of excretion in sweat [2]: 2 to 3 min |
| COc1ccccc1OCCNCC(O)COc1cccc2[nH]c3ccccc3c12 (stereo not drawn) [Carvedilol S(−) isomer, Carvedilol] | nonselective beta-adrenoceptor blocker | alpha-blocking activity (alpha-blocking): approximately equally alpha-blocking potency |
| COc1ccccc1OCCNCC(O)COc1cccc2[nH]c3ccccc3c12 (single isomer, unassigned) [Carvedilol R(+) isomer, Carvedilol] | – | alpha-blocking activity (alpha-blocking): approximately equally alpha-blocking potency |
| CC(C)NCC(O)c1ccc(NS(C)(=O)=O)cc1 [Sotalol D-isomer, Sotalol] | no beta-blocking activity | – |
| CC(CCc1ccccc1)NCC(O)c1ccc(O)c(C(N)=O)c1 [Labetalol (R, S) isomer, Labetalol] | relatively inactive | – |
| CC(CCc1ccccc1)NCC(O)c1ccc(O)c(C(N)=O)c1 [Labetalol (R, R) isomer, Labetalol] | potent beta-blocker | – |
| CC(C)NCC(O)c1ccc(NS(C)(=O)=O)cc1 [Sotalol L-isomer, Sotalol] | has beta-blocking activity | – |
| S-Timolol | – | alpha-blocking activity (alpha-blocking): more a potent alpha-blocker than R-timolol |
| CC(CCc1ccccc1)NCC(O)c1ccc(O)c(C(N)=O)c1 [Labetalol (S, R) isomer, Labetalol] | – | alpha-blocking activity (alpha-blocking): potent alpha-blocker |
| COc1ccc2c(c1)[C@]13CCCC[C@@H]1[C@H](C2)N(C)CC3 [DM, Dextromethorphan] | – | half-life [1]: 2 to 4 h |
| CC(CCc1ccccc1)NCC(O)c1ccc(O)c(C(N)=O)c1 [Labetalol (S, S) isomer, Labetalol] | relatively inactive | – |
| CC(C)NC[C@H](O)COc1cccc2ccccc12 [1-Propranolol] | has beta-adrenoceptors blocking action | – |
| CC(C)NC[C@@H](O)COc1cccc2ccccc12 [d-propranolol] | inactive | – |
| OC(CNCC(O)C1CCc2cc(F)ccc2O1)C1CCc2cc(F)ccc2O1 (stereo not shown) [Nebivolol] | highly selectively beta-1-blocking effects | – |
